The text below walks through data of patent publication US7842703B2, “Substituted benzofused derivatives and their use as vanilloid receptor ligands” (Glenmark Pharmaceuticals S.A., priority 2005, dated 2010).

For the assay, the target named is T1, Human TRPV1 expressing CHO cells (Homo sapiens, UniProt Q8NER1).
T1 construct: expressed in transfected cells; host or cells: CHO cells under G-418 selection
The assay can be described thus: Screening for TRPV1 antagonist using the 45Calcium uptake assay (inhibition of capsaicin induced cellular uptake of radioactive calcium). It counts as cell-based. The note with it: for % inhibition of ^45Ca uptake at 1 μM / inhibition at 1 µM: test compound 1 μM, capsaicin 250 nM, relative to maximum ^45Ca uptake induced by capsaicin alone; for inhibition at 1 µM: CHO; for IC50: inhibition of capsaicin (250 nM) induced ^45Ca uptake. How it is done: The inhibition of TRPV1 receptor activation was followed as inhibition of capsaicin induced cellular uptake of radioactive calcium which represents calcium influx exclusively through the plasma membrane associated TRPV1 receptor.
Stock solution of capsaicin was made in ethanol and test compounds in 100% DMSO. Stock solutions were diluted to appropriate final concentrations in assay buffer keeping the final DMSO concentration between 0.1% and 0.55%.
^45Ca was used at a final concentration of 2.5 μCi/ml (^45Ca, ICN).
Assay buffer was composed of F-12 DMEM medium supplemented with 1.8 mM CaCl2 (final conc.) and 0.1% Bovine serum albumin. (BSA from SIGMA)
Wash buffer was tyrodes solution supplemented with 0.1% BSA and 1.8 mM calcium. Lysis buffer contained 50 mM Tris-HCl, pH7.5, 150 mM NaCl, 1% Triton X-100, 0.5% deoxycholate and 0.1% Sodium dodicyl sulphate (SDS, SIGMA)
Assay was carried out with some modifications the of procedure as described by Toth et. al. (See Toth A et. al., Life Sciences 73 p 487-498, 2003). Human TRPV1 expressing CHO cells were grown in F-12 DMEM (Dulbecco's modified Eagle's medium—GIBCO) medium with 10% FBS (fetal bovine serum Hyclone), 1% penicillin-streptomycin solution, 400 μg/ml of G-418. Cells were seeded 48 h prior to the assay in 96 well plates so as to get ˜50,000 cells per well on the day of experiment. Plates were incubated at 37° C. in the presence of 5% CO2. Cells were then washed twice with 200 μl of assay buffer and re-suspended in 144 μl of the same. Assay was carried out at 30° C. in total volume of 200 μl. Test compounds were added to the cells fifteen minutes before addition of capsaicin, Final concentration of capsaicin in the assay was 250 nM. After 5 minutes of agonist treatment, drug was washed out and wells rinsed with 300 μl of ice cold wash buffer 3×. The cells were lysed in 50 μl lysis buffer for 20 min. 40 μl of cell lysate was mixed with 150 μl of Microscint PS, left overnight for equilibration. Radioactivity in samples was measured as counts per minute (cpm) using Packard Biosciences Top Count. The drug/vehicle/capsaicin treated ^45Ca uptake values were normalized over basal ^45Ca value. Data was expressed as % inhibition of ^45Ca uptake by test compound with respect to maximum ^45Ca uptake induced by capsaicin alone. IC50 value was calculated from dose response curve by nonlinear regression analysis using GraphPadPRISM software.

T1 sequence (Q8NER1 whole entry): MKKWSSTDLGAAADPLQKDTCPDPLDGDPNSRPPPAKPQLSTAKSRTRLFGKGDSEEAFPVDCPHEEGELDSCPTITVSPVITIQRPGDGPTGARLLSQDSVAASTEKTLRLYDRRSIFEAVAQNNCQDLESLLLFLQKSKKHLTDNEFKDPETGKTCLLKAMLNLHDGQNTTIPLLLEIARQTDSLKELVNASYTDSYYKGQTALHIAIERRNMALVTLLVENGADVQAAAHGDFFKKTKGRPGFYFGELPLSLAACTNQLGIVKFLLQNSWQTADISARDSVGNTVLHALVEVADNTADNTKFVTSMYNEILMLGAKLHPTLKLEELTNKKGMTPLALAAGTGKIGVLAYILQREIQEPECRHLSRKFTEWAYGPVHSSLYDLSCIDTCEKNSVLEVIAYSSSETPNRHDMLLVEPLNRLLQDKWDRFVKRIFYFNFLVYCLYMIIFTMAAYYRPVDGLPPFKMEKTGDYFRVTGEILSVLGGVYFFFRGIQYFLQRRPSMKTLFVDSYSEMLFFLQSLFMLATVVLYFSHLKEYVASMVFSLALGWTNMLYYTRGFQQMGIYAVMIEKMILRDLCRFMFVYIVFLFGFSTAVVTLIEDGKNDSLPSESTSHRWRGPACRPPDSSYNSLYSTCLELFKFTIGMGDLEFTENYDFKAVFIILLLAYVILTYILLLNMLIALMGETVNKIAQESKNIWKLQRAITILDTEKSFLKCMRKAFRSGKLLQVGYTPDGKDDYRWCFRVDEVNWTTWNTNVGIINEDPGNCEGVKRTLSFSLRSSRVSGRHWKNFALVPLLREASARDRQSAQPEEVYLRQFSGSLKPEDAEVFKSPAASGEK

In the case of `O=C(Nc1ncc(-c2ccc(Br)cc2)s1)NC1CC2(CCC2)Oc2ccccc21` (racemic) [Example 17, (±) 1-(3,4-Dihydro-spiro[2H-1-benzopyran-2,1′-cyclobutane]-4-yl)-3-[5-(4-bromophenyl)-1,3-thiazol-2-yl])urea], the “% inhibition of ^45Ca uptake at 1 μM” value is listed as less than 50%. The term inhibition denotes how much of the control response was suppressed. For orientation: IC50 means the point on the concentration scale where inhibition reaches its midpoint. As for `Cc1cc2c(cc1Br)C(NC(=O)Nc1cccc3cnccc13)CC1(CCC1)O2` (racemic) [Example 67, (±) 1-(6-Bromo-3,4-dihydro-7-methylspiro[2H-1-benzopyran-2,1′-cyclobutane]-4-yl)-3-(isoquinolin-5-yl)urea], the inhibition at 1 µM was greater than 50% and the IC50 came to 447 nM. On to `CC(=O)n1ncc2cc(NC(=O)NC3CC4(CCC4)Oc4ccccc43)ccc21` (racemic) [Example 19, (±) 1-(3,4-Dihydro-spiro[2H-1-benzopyran-2,1′-cyclobutane]-4-yl)-3-(1-acetyl-1H-indazol-5-yl)urea], for which the inhibition at 1 µM is less than 50%.

As for `Cc1cc2c(NC(=O)NC3CC4(CCC4)Oc4ccc(Cl)cc43)cccc2cn1` (racemic) [Example 73, (±) 1-(6-Chloro-3,4-dihydro-spiro[2H-1-benzopyran-2,1′-cyclobutane]-4-yl)-3-(3-methylisoquinolin-5-yl)urea], the inhibition at 1 µM was greater than 50% and the half-maximal inhibitory concentration (IC50) came out at 1260 nM. For the compound `Cc1ccc2nc(NC(=O)NC3CC4(CCC4)Oc4ccccc43)sc2c1` (racemic) [Example 18, (±) 1-(3,4-Dihydro-spiro[2H-1-benzopyran-2,1′-cyclobutane]-4-yl)-3-(6-methyl-1,3-benzothiazol-2-yl)urea], the inhibition at 1 µM is less than 50%. On to `Cc1cc2c(NC(=O)NC3CC4(CCC4)Oc4ccc(F)cc43)cccc2cn1` (racemic) [Example 72, (±) 1-(3,4-Dihydro-6-fluoro-spiro[2H-1-benzopyran-2,1′-cyclobutane]-4-yl)-3-(3-methylisoquinolin-5-yl)urea], for which the inhibition at 1 µM is greater than 50% and the IC50 was determined as 469 nM. Take `Cc1cc2c(NC(=O)NC3CC4(CCC4)Oc4ccccc43)cccc2cn1` (racemic) [Example 7, (±) 1-(3,4-Dihydro-spiro[2H-1-benzopyran-2,1′-cyclobutane]-4-yl)-3-(3-methylisoquinolin-5-yl)urea]: the inhibition at 1 µM was greater than 50% and the IC50 worked out at 183 nM.

Consider `COc1ccc2c(c1)OC1(CCC1)CC2NC(=O)Nc1cccc2cnccc12` (racemic) [Example 47, (±) 1-(3,4-Dihydro-7-methoxy-spiro[2H-1-benzopyran-2,1′-cyclobutane]-4-yl)-3-(isoquinolin-5-yl)urea], for which the inhibition at 1 µM was greater than 50% and the IC50 amounted to 0.21 nM. On the same counts, the results for `O=C(Nc1cccc2cnccc12)NC1CC2(CCC2)Oc2ccc(F)cc21` (racemic) [Example 42, (±) 1-(3,4-Dihydro-6-fluoro-spiro[2H-1-benzopyran-2,1′-cyclobutane]-4-yl)-3-(isoquinolin-5-yl)urea] are greater than 50% and 11.9 nM. As to `CNS(=O)(=O)c1ccc2c(c1)C(NC(=O)Nc1cccc3cnccc13)CC1(CCC1)O2` (racemic) [Example 55, (±) 1-(3,4-Dihydro-6-methylaminosulfonyl-spiro[2H-1-benzopyran-2,1′-cyclobutane]-4-yl)-3-(isoquinolin-5-yl)urea], the inhibition at 1 µM is less than 50%. For the compound `Cn1cc2cc(NC(=O)NC3CC4(CCC4)Oc4ccccc43)ccc2n1` (racemic) [Example 15, (±) 1-(3,4-Dihydro-spiro[2H-1-benzopyran-2,1′-cyclobutane]-4-yl)-3-(2-methyl-2H-indazol-5-yl)urea], the inhibition at 1 µM is less than 50%. For `Cc1cc2c(NC(=O)NC3CC4(CCC4)Oc4cc(OC(F)F)ccc43)cccc2cn1` (racemic) [Example 56, (±) 1-(7-Difluoromethoxy-3,4-dihydro-spiro[2H-1-benzopyran-2,1′-cyclobutane]-4-yl)-3-(3-methylisoquinolin-5-yl)urea], the inhibition at 1 µM was greater than 50% and the IC50 was 14.4 nM. Regarding `COc1ccc2nc(NC(=O)NC3CC4(CCC4)Oc4ccccc43)sc2c1` (racemic) [Example 14, (±) 1-(3,4-Dihydro-spiro[2H-1-benzopyran-2,1′-cyclobutane]-4-yl)-3-(6-methoxy-1,3-benzothiazol-2-yl)urea], the inhibition at 1 µM was less than 50%. Regarding `O=C(Nc1cccc2cnccc12)NC1CC2(CCC2)Oc2ccc(O)cc21` (racemic) [Example 45, (±) 1-(3,4-Dihydro-6-hydroxy-spiro[2H-1-benzopyran-2,1′-cyclobutane]-4-yl)-3-(isoquinolin-5-yl)urea], the inhibition at 1 µM is less than 50%.

In the case of `O=C(Nc1cccc2ncccc12)NC1CC2(CCC2)Oc2ccccc21` (racemic) [Example 26, (±) 1-(3,4-Dihydrospiro[2H-1-benzopyran-2,1′-cyclobutan]-4-yl)-3-(quinolin-5-yl)urea], the inhibition at 1 µM came out at 19.8%. `O=C(Nc1cccc2cnccc12)NC1CC2(CCC2)Oc2c(F)cc(F)cc21` (single isomer, unassigned; (-)) [Example 60, (−) 1-(6,8-Difluoro-3,4-Dihydro-spiro[2H-1-benzopyran-2,1′-cyclobutane]-4-yl)-3-(isoquinolin-5-yl)urea]: the “% inhibition of ^45Ca uptake at 1 μM” value was less than 50%. For the compound `Cc1nccc2c(NC(=O)NC3CC4(CCC4)Oc4ccccc43)cccc12` (racemic) [Example 8, (±) 1-(3,4-Dihydro-spiro[2H-1-benzopyran-2,1′-cyclobutane]-4-yl)-3-(1-methylisoquinolin-5-yl)urea], the inhibition at 1 µM was greater than 50% and the half-inhibitory concentration (IC50) is 551 nM. Turning to `Cc1cc2c(cc1Cl)C(NC(=O)Nc1cccc3cnccc13)CC1(CCC1)O2` (racemic) [Example 69, (±) 1-(6-Chloro-3,4-dihydro-7-methyl-spiro[2H-1-benzopyran-2,1′-cyclobutane]-4-yl)-3-(isoquinolin-5-yl)urea], the inhibition at 1 µM was greater than 50% and the IC50 came to 45 nM. Take `O=C(Nc1cccc2cnccc12)NC1CC2(CCC2)Oc2cc(Cl)c(Cl)cc21` (racemic) [Example 68, (±) 1-(6,7-Dichloro-3,4-dihydro-spiro[2H-1-benzopyran-2,1′-cyclobutane]-4-yl)-3-(isoquinolin-5-yl)urea]: the inhibition at 1 µM was greater than 50% and the IC50 came out at 222 nM. With `Cc1cc2c(NC(=O)NC3CC4(CCC4)Oc4cc(Cl)ccc43)cccc2cn1` (racemic) [Example 57, (±) 1-(7-Chloro-3,4-dihydro-spiro[2H-1-benzopyran-2,1′-cyclobutane]-4-yl)-3-(3-methylisoquinolin-5-yl)urea], the inhibition at 1 µM was greater than 50% and the half-inhibitory concentration (IC50) came to 442 nM. For the compound “(±) 1-(3,4-Dihydro-6-fluoro-spiro[2H-1-benzopyran-2,1′-cyclobutane]-4-yl)-3-(isoquinolin-5-yl)urea [Example 50]”, the IC50 is 7.8 nM and the “% inhibition of ^45Ca uptake at 1 μM” value was greater than 50%. Take `O=C(Nc1cccc2cnccc12)NC1CC2(CCC2)Oc2ccc([N+](=O)[O-])cc21` (racemic) [Example 77, (±) 1-(3,4-Dihydro-6-nitro-spiro[2H-1-benzopyran-2,1′-cyclobutane]-4-yl)-3-(isoquinolin-5-yl)urea]: the inhibition at 1 µM was greater than 50% and the IC50 was 463 nM. On the same counts, the results for `O=C(Nc1cccc2cnccc12)NC1CC2(CCC2)Oc2c(F)cc(F)cc21` (single isomer, unassigned; (+)) [Example 59] are greater than 50% and 7.59 nM.

For the compound `Cc1cc(C)nc(NC(=O)NC2CC3(CCC3)Oc3ccccc32)n1` (racemic) [Example 22, (±) 1-(3,4-Dihydro-spiro[2H-1-benzopyran-2,1′-cyclobutane]-4-yl)-3-(4,6-dimethylpyrimidin-2-yl)urea], the inhibition at 1 µM was less than 50%. On the same count and under the same terms, next, `N#Cc1cccc2c1OC1(CCC1)CC2NC(=O)Nc1cccc2cnccc12` (racemic) [Example 58, (±) 1-(8-Cyano-3,4-dihydro-spiro[2H-1-benzopyran-2,1′-cyclobutane]-4-yl)-3-(isoquinolin-5-yl)urea]: less than 50%.

Turning to `O=C(Nc1cccc2cnccc12)NC1CC2(CCC2)Oc2c(Cl)cccc21` (racemic) [Example 49, (±) 1-(8-Chloro-3,4-dihydro-spiro[2H-1-benzopyran-2,1′-cyclobutane]-4-yl)-3-(isoquinolin-5-yl)urea], the inhibition at 1 µM was greater than 50% and the IC50 turned out to be 29.9 nM.
